# Article PMC3369275 (Tetrahedron, 2012)
# What was measured:
# [1] = target: NF-κB (p65) (Homo sapiens, UniProt Q04206); test: Enzyme-based ELISA NF-κB p65 inhibition assay; assay type: biochemical; details: for IC50: read-out: NF-κB p65 inhibition IC50, ELISA, rocaglamide positive control; for NF-κB (p65) inhibitory activity (result in words): inactive = IC50 > 10 µM
# [2] = system: HT-29 human colon cancer cell line
# [3] = system: panel of human cancer cell lines; details: reported previously; cited from earlier work
# NF-κB (p65), sequence (Q04206 whole entry): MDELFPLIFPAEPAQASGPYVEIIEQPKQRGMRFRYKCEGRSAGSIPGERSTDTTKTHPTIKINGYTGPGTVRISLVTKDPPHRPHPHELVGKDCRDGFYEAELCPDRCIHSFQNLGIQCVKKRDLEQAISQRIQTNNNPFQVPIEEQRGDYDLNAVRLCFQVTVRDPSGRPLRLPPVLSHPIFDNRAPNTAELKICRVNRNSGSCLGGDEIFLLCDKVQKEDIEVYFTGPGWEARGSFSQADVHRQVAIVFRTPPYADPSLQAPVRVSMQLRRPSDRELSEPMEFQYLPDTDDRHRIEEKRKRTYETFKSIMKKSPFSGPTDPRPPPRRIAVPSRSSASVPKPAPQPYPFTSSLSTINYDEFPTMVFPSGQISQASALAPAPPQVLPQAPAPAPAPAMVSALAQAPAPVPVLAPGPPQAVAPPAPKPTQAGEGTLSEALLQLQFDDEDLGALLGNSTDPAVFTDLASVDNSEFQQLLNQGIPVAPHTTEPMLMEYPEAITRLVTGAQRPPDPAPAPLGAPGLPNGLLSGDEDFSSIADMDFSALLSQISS
Compound,IC50 [1] [µM],NF-κB (p65) inhibitory activity (result in words) [1],IC50 [2] [µM],Cytotoxicity toward a panel of human cancer cell lines (result in words) [3]
"C=C1C(=O)OC2CC(C)CCC(=O)C(C)(OC(C)=O)CC(OC(=O)C(C)=CC)C12 [Compound 3, (4S,6R,7S,8S,10R)-1-oxo-8-angeloyloxy-10-acetoxygermacra-11(13)-en-6,12-olide]",> 10,–,3,–
"C=C1C(=O)O[C@@H]2C/C(C)=C\CC(=O)[C@](C)(OC(C)=O)C[C@H](OC(=O)/C(C)=C\C)[C@@H]12 [Compound 4, (6R,7S,8S,10R)-1-oxo-8-angeloyloxy-10-acetoxygermacra-3(4),11(13)-dien-6,12-olide]",> 10,–,–,–
"C=C1C(=O)OC2CC(C)C(OC)CC(=O)C(C)(OC(C)=O)CC(OC(=O)C(C)=CC)C12 [Compound 5, (3R,4R,6R,7S,8S,10R)-1-oxo-3-methoxy-8-angeloyloxy-10-acetoxygermacra-11(13)-en-6,12-olide]",2.1,active,–,–
"C=C1C(=O)O[C@H]2[C@H]1CC/C(C)=C/CC[C@@]1(C)O[C@@H]21 [parthenolide, reference compound]",–,–,–,exhibit cytotoxicity

# The next lines start with results.
IC50 [1] [µM],NF-κB (p65) inhibitory activity (result in words) [1],Compound,IC50 [2] [µM],Cytotoxicity toward a panel of human cancer cell lines (result in words) [3]
> 10,–,"C=C1C(=O)O[C@@H]2C[C@@H](C)/C=C\C(=O)[C@](C)(OC(C)=O)C[C@H](OC(=O)/C(C)=C\C)[C@@H]12 [Compound 7, ereglomerulide]",–,–
> 10,–,"C=C1C(=O)OC2CC(C)C(OC)CC(=O)C(C)(O)CC(OC(=O)C(C)=CC)C12 [Compound 6, (3R,4R,6R,7S,8S,10R)-1-oxo-3-methoxy-8-angeloyloxy-10-hydroxygermacra-11(13)-en-6,12-olide]",–,–
3.8,active,"C=C(C)C(=O)O[C@H]1C[C@@]2(C)OC(=CC2=O)/C(CO)=C\[C@H]2OC(=O)C(=C)[C@H]12 [Compound 8, goyazensolide]",–,exhibit cytotoxicity
2.9,active,"C=C1C(=O)O[C@@H]2/C=C(/C)C3=CC(=O)[C@@](C)(C[C@H](OC(=O)/C(C)=C\C)[C@@H]12)O3 [Compound 12, lychnopholide]",–,exhibit cytotoxicity
> 10,–,"4,5-dihydrolychnopholide [Compound 13]",–,–
3.2,active,15-deoxygoyazensolide [Compound 10],0.26,–
